The record followed here is article PMC7734281, “Functionalized Oxoindolin Hydrazine Carbothioamide Derivatives as Highly Potent Inhibitors of Nucleoside Triphosphate Diphosphohydrolases” (Frontiers in Pharmacology, 2020).

Holding throughout (assay type): biochemical
Assay [1] has as its target T1, h-NTPDase1 (Homo sapiens, UniProt P49961).
T1 construct: made in house; host or cells: COS-7 cells, transient transfection; crude protein extract after sonication
T1 sequence (P49961 1-510): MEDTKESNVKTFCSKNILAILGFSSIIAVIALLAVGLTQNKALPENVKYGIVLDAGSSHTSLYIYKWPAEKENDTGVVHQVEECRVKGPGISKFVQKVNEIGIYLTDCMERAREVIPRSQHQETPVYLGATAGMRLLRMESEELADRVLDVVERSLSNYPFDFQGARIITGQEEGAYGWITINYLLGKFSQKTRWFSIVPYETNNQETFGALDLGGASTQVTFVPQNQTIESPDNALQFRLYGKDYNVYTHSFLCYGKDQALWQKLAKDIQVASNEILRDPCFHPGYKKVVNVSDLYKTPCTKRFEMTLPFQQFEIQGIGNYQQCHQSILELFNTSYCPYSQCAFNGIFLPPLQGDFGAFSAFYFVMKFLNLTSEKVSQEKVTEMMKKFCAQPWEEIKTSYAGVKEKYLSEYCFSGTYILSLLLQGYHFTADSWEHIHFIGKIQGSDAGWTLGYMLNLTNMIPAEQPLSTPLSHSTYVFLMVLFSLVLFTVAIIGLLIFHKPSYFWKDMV
In words: h-NTPDase1 inhibition, malachite green assay. Particulars: for inhibition at 100 µM / Ki / IC50: human NTPDase1; for inhibition at 100 µM: compound 100 µM; for IC50: ATP 100 µM substrate, mean ± SEM of three independent experiments. On the procedure:
(§1) COS-7 cells were transfected with plasmids expressing human or mouse NTPDases1, -2, -3, and -8 as previously described ([Levesque et al., 2007]; [Lecka et al., 2014]) Briefly, the confluent cells were transferred to Dulbecco’s Modified Eagle’s Medium containing no fetal bovine serum. Then, these cells were incubated with plasmid DNA (6 µg) and Lipofectamine reagent (24 µl) at 37°C. After 5 h, transfection was terminated with the addition of an equal volume of DMEM/F-12 (supplemented with 20% FBS) and cells were collected by harvesting after 40–72 h.
(§2) To prepare protein extracts, transfected COS-7 cells were washed three times with tris-saline buffer while temperature was maintained at 4°C. Then cells were scraped and resuspended in harvesting buffer containing 95 mM NaCl, 45 mM tris and 0.1 mM phenylmethylsulfonyl fluoride (pH 7.5). Cells were again washed twice by centrifugation for 5 min at 300 × g at 4°C and then resuspended in harvesting buffer (supplemented with 10 μg ml aprotinin). Following sonication, cellular debris was isolated by 10 min centrifugation at 300 g at 4°C. Subsequently, supernatant was removed very carefully and protein concentration was determined by using Bradford microplate assay while using the bovine serum albumin as a standard ([Bradford, 1976]).
(§3) The inhibitory effects of synthesized compounds on h-NTPDase1, -2, -3, and -8 were determined as described previously, although with slight modifications ([Martín-Satué et al., 2009]). Assay was conducted in a reaction medium containing 50 mM tris-HCl and 5 mM CaCl2 (pH 7.4). All the test compounds were dissolved in dimethyl sulfoxide (DMSO, 10%) and initially screened at a concentration of 100 µM. A reaction mixture containing 55 µl of assay buffer, 10 µl of test compound solution and 10 µl of h-NTPDase1 (58 ng/well) or h-NTPDase2 (79 ng/well) or h-NTPDase3 (163 ng/well) or h-NTPDase8 (66 ng/well) was incubated at 37°C for 10 min. Following the incubation, a 10 µl solution of adenosine triphosphate (ATP, 100 µm) was added as substrate and reaction mixture was again incubated for 15 min at 37°C. The reaction was stopped by adding malachite green reagent (15 µl) and placed at room temperature for 4 to 6 min. Finally, absorbance was measured at 630 nm by using Omega FLUOstar microplate reader (BMG Labtech, Ortenberg, Germany) and % inhibitions were calculated. For compounds showing more than 50% inhibition of any isozyme, dose response curves were generated and their IC50 values were determined. Three separate enzyme inhibition assays were carried out in triplicate and dose-response curve were generated by using PRISM 5.0 (GraphPad, San Diego, United States).

In assay [2] the target is T2, m-NTPDase2 (Mus musculus, UniProt O55026).
T2 construct: made in house; host or cells: COS-7 cells, transient transfection; crude protein extract after sonication
T2 sequence (O55026 1-495): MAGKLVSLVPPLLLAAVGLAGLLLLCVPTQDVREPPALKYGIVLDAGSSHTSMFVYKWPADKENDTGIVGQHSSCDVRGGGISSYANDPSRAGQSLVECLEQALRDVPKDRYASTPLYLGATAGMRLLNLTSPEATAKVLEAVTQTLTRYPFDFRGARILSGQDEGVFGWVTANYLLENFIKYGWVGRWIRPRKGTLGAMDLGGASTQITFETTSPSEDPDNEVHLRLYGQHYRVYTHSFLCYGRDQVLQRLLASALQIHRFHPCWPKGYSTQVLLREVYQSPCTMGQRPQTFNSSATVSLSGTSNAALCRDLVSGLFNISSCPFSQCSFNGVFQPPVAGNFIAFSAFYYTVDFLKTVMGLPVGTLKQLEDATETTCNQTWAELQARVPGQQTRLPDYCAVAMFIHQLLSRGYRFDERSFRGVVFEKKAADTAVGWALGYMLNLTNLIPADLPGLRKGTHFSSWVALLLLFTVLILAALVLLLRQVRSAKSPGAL
Kind of assay: m-NTPDase2 inhibition, malachite green assay. The settings on record: for inhibition at 100 µM: compound 100 µM; for IC50: mean ± SEM of three independent experiments. The protocol:
as §1, §2, §3
(§4) Same procedure was adopted to determine the inhibitory effects of compounds on mouse NTPDases (m-NTPDases). However, the amount of protein used was as follows: m-NTPDase1 (82 ng/well), m-NTPDase2 (57 ng/well), m-NTPDase3 (110 ng/well) and m-NTPDase8 (79 ng/well)

Assay [3] concerns the target T3, m-NTPDase8 (Mus musculus, UniProt Q8K0L2).
T3 construct: made in house; host or cells: COS-7 cells, transient transfection; crude protein extract after sonication
T3 sequence (Q8K0L2 1-497): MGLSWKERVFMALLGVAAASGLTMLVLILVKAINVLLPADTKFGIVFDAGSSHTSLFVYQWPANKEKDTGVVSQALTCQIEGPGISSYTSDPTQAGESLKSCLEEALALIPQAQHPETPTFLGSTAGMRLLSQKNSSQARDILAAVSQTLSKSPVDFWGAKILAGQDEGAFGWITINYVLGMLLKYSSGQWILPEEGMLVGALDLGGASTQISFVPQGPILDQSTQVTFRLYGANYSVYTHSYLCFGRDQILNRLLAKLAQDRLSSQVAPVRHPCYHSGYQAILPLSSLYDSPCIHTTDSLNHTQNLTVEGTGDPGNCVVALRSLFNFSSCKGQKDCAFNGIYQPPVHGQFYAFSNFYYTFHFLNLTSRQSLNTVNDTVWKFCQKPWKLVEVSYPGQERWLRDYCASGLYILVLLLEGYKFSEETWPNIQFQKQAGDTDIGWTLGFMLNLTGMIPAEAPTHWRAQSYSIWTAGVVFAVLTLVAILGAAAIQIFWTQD
Kind of assay: m-NTPDase8 inhibition, malachite green assay. The settings on record: for IC50: mean ± SEM of three independent experiments; for inhibition at 100 µM: compound 100 µM. On the procedure: as §1, §2, §3, §4

What is called inhibition is the relative decrease from the control value, in per cent. The Ki is the dissociation constant of the complex between target and ligand, obtained from inhibition or displacement. As a reminder, the IC50 is the midpoint of a concentration-inhibition curve. For `O=C1Nc2ccccc2/C1=N/NC(=S)Nc1ccc(F)cc1` [8d, (Z)-N-(4-fluorophenyl)-2-(2-oxoindolin-3-ylidene)hydrazine-1-carbothioamide], the inhibition at 100 µM in assay [1] came out at 49.1%; in assay [2] it was 27%. This compound showed a Ki in assay [3] of 0.17 µM. For the same compound, the IC50 in assay [3] was determined as 1.45 ± 0.12 µM.
On to `Cc1ccc(NC(=S)N/N=C2\C(=O)Nc3ccccc32)cc1` [8h, (Z)-2-(2-oxoindolin-3-ylidene)-N-(p-tolyl)hydrazine-1-carbothioamide], for which the inhibition at 100 µM in assay [1] was 49%; in assay [2], 31%; in assay [3] it was 28%.
As for `O=C1Nc2ccccc2/C1=N/NC(=S)NCc1ccccc1` [8f, (Z)-N-benzyl-2-(2-oxoindolin-3-ylidene)hydrazine-1-carbothioamide], in assay [1], affinity was put at a Ki of 0.03 µM and half-maximal inhibition (IC50) required 0.24 ± 0.01 µM. The compound further returned an inhibition at 100 µM in assay [2] of 34%. This compound came in with an inhibition at 100 µM in assay [3] of 38%.
Take `O=C1Nc2ccccc2/C1=N/NC(=S)Nc1c(F)cccc1F` [8l, (Z)-N-(2,6-difluorophenyl)-2-(2-oxoindolin-3-ylidene)hydrazine-1-carbothioamide]: the Ki in assay [1] stood at 0.04 µM; in assay [2], 0.05 µM. In addition, the IC50 in assay [1] is 0.3 ± 0.03 µM; in assay [2] it was 0.2 ± 0.01 µM. Moreover, the inhibition at 100 µM in assay [3] amounted to 13%.
Take `O=C1Nc2ccccc2/C1=N/NC(=S)Nc1cccc(Cl)c1` [8g, (Z)-N-(3-chlorophenyl)-2-(2-oxoindolin-3-ylidene)hydrazine-1-carbothioamide]: the inhibition at 100 µM in assay [1] is 28%; in assay [2], 36%; in assay [3] it was 36%.
In assay [1], `Cc1cccc(C)c1NC(=S)N/N=C1\C(=O)Nc2ccccc21` [8i, (Z)-N-(2,6-dimethylphenyl)-2-(2-oxoindolin-3-ylidene)hydrazine-1-carbothioamide] gave a Ki of 0.24 µM and an IC50 of 1.63 ± 0.15 µM. Further, in assay [2], the affinity corresponds to a Ki of 0.04 µM and the IC50 amounted to 0.15 ± 0.01 µM. This compound displayed an inhibition at 100 µM in assay [3] of 26%.
As for `O=C1Nc2ccccc2/C1=N/NC(=S)Nc1ccc([N+](=O)[O-])cc1` [8b, (Z)-N-(4-nitrophenyl)-2-(2-oxoindolin-3-ylidene)hydrazine-1-carbothioamide], in assay [1], affinity was put at a Ki of 0.04 µM and 0.29 ± 0.02 µM corresponded to half-maximal inhibition (IC50). The same compound registered an inhibition at 100 µM in assay [2] of 31%. This compound also registered an inhibition at 100 µM in assay [3] of 30%.
Regarding `O=C1Nc2ccccc2/C1=N/NC(=S)Nc1ccccc1` [8a, (Z)-2-(2-oxoindolin-3-ylidene)-N-phenylhydrazine-1-carbothioamide], the inhibition at 100 µM in assay [1] worked out at 45%; in assay [2] it was 42%; in assay [3], 28%.
Turning to `Cc1ccc(C(=O)Nc2ccc(S(=O)(=O)O)c3cc(S(=O)(=O)O)cc(S(=O)(=O)O)c23)cc1NC(=O)c1cccc(NC(=O)Nc2cccc(C(=O)Nc3cc(C(=O)Nc4ccc(S(=O)(=O)O)c5cc(S(=O)(=O)O)cc(S(=O)(=O)O)c45)ccc3C)c2)c1` [Suramin, reference compound], the Ki was found to be 2.33 µM in assay [1] and 5.67 µM in assay [2]. Besides, the IC50 in assay [1] is 16.1 ± 1.02 µM; in assay [2], 21 ± 2 µM; in assay [3], over 100 µM.
In assay [1], `CCNC(=S)N/N=C1\C(=O)Nc2ccccc21` [8m, (Z)-N-ethyl-2-(2-oxoindolin-3-ylidene)hydrazine-1-carbothioamide] gave a Ki of 0.38 µM and an IC50 of 2.6 ± 0.02 µM. In assay [2], this compound gave a Ki of 0.41 µM and an IC50 of 1.5 ± 0.11 µM. The inhibition at 100 µM in assay [3] was determined as 35%.
For the compound `COc1ccc(NC(=S)NNC2=c3ccccc3=NC2=O)cc1` [8k, (Z)-N-(4-methoxyphenyl)-2-(2-oxoindolin-3-ylidene)hydrazine-1-carbothioamide], the results for the inhibition at 100 µM in assay [1], in assay [2] and in assay [3] were 44%, 29% and 24%, respectively.
For `COc1ccc(OC)c(NC(=S)N/N=C2\C(=O)Nc3ccccc32)c1` [8j, (Z)-N-(2,5-dimethoxyphenyl)-2-(2-oxoindolin-3-ylidene)hydrazine-1-carbothioamide], in assay [1], the Ki came out at 0.02 µM and the IC50 is 0.15 ± 0.01 µM. In assay [2], this compound showed an inhibition at 100 µM of 27%. In addition, in assay [3], the inhibition at 100 µM is 32%.
For `O=C1Nc2ccccc2/C1=N/NC(=S)Nc1ccc(Cl)cc1` [8c, (Z)-N-(4-chlorophenyl)-2-(2-oxoindolin-3-ylidene)hydrazine-1-carbothioamide], in assay [1], the Ki is 0.03 µM and the midpoint of inhibition, the IC50, lay at 0.23 ± 0.01 µM. Further, the inhibition at 100 µM in assay [2] was found to be 36%. In addition, at 100 µM the inhibition in assay [3] was 36%.
As to `COc1cccc(NC(=S)N/N=C2\C(=O)Nc3ccccc32)c1` [8e, (Z)-N-(3-methoxyphenyl)-2-(2-oxoindolin-3-ylidene)hydrazine-1-carbothioamide], in assay [1] (Lineweaver-Burk plot), the “Mode of inhibition of h-NTPDase1” value is “non-competitive”. In assay [1], the Ki worked out at 0.15 µM and the IC50 is 0.15 ± 0.009 µM. In assay [2], this compound gave an inhibition at 100 µM of 29%. In assay [3], this compound had an inhibition constant Ki of 0.44 µM and an IC50 of 3.8 ± 0.21 µM.
